Laboratory results as given in patent publication US20220031632A1, “NANOPARTICLE COMPOSITIONS AND USES THEREOF” (OP-T LLC, priority 2020, published 2022).
Entries after “also recorded” stand apart in the source; their conditions may differ. Where no end group is shown, it is not given here.

Legend:
[1] = system: T1D dogs; assay: Longstanding T1D domestic dogs treated with i.v. infusions of dog 15-mer peptide; assay type: in vivo; details: before first infusion vs several weeks after initiation
Protocol: Four longstanding T1D domestic dogs were treated with i.v. infusions of dog 15-mer peptide, twice in the first week then weekly thereafter. Levels of fructosamine were measured before the first infusion and several weeks after initiation of treatment.

[2] = system: C57BL/6 mice; assay: EAE mouse model, daily clinical score; assay type: in vivo
Excerpt: EAE was then induced and the mice started to show symptoms on day 10, which is standard for these mice under these conditions. This is further depicted in FIG. 11. On days 13, 20, and 27, the KGYY6 group of mice receive a boost of peptide, while the other group again received PBS via IV injection. […] By day 13, there was a statistically significant difference that lasted throughout the experiment. In FIG. 11—*—asterisks—denote p-value: *—one asterisk is <0.05; **—two asterisks is <0.01; ***—three asterisks is <0.001; and ****-four asterisks is <0.0001. This is a two-way ANOVA with Sidak's multiple comparisons test. Arrows in above lines in FIG. 11 represent days −3, −1, 13, 20, and 27, which correspond to days on which the mice received the KGYY6. Mice were disease scored daily in this study as described in more detail below. […]
All mice were monitored daily for disease and scored in the following manner: 0—no abnormalities; 0.5—clutching hind limbs; 1—limp tail or weak hind limbs and/or wobbly gait; 1.5—limp tail and clutching hind limbs; 2—limp tail and weak hind limbs and/or wobbly gait wherein the mouse supports itself and propels itself using hind limbs; 2.5—limp tail and weak hind limbs and/or wobbly gait wherein the mouse cannot support and propel itself using hind limbs, but the paws are moving. […]

[3] = system: ApoE−/− mice; assay: Glucose tolerance testing in ApoE-/- mice; assay type: in vivo, mouse; details: n=14
[4] = system: CD3+ T cells and antigen presenting cells (APC); assay: Fluorescent peptide binding to PBMCs from MS patients by flow cytometry; assay type: cell-based, human; details: fluorescenated peptides
Protocol: In some embodiments, the size (length—i.e. number of amino acids) of the peptide may matter for disease prevention capacity. […] In some embodiments, use of different length peptides may be advantageous in treatment of different diseases as each disease may be driven primarily by one cell type or another.
Peripheral blood mononuclear cells from MS patients were stained then gated on CD3^+ for T cells or on CD3^− for antigen presenting cells (APC) were analyzed for peptide binding levels. Different cells bind different peptides with different intensities as determined by flow cytometry. There were 24 subjects in each test.

[5] = system: NOD mice; assay: Immunogenicity: serum antibodies to KGYY15 or sCD154 by western blot; assay type: in vivo, mouse; details: 1 mg/kg weekly for 7 weeks
Protocol: (§1) NOD mice were injected weekly for 7 weeks with 1 mg/kg of KGYY15. In FIG. 4A, serum was collected from injected or control mice and used, followed by anti-mouse-IgG secondary antibody, in western blots for detection of KGYY15 peptide or soluble CD154 (sCD154; KGYY15 and sCD154 sizes are indicated with arrows). […] As a standard, KGYY15-biotin was run and detected with streptavidin-HRP. Experiment was done twice, pooling serum from 2 and 3 mice in each experiment, respectively. In FIGS. 4B and 4C, sorted splenic APC from KGYY15 treated mice were loaded with KGYY15 or not. T cells from KGYY15 treated mice were CFSE labelled then exposed to the autologous APC (+/− KGYY15) and incubated for 5 days. […] Representative histogram of CFSE dilution: Black line—T cells alone; Grey tinted—T cells+APC alone; Dotted line—T cells+APC loaded with KGYY15. Graph depicts cumulative data (n=5 in each group).

[6] = system: NOD mice; assay: Reversal of overt hyperglycemia in new onset diabetic NOD mice, daily KGYY15; assay type: in vivo, mouse
Protocol: FIG. 2, which includes FIG. 2A-2D, is based on a study of the use of KGYY15 to treat NOD mice. […] Immediately after diabetes onset (blood glucose >250 mg/dl; n=9), mice were treated daily with KGYY15 and blood glucose was monitored. […] FIG. 2C is a graph showing Islet insulitis scores in reversed and non-reversed mice: 0, no infiltration (black); 1, 25% infiltration (striped); 2, 50% infiltration (dark grey); 3, 75% infiltration (light grey); 4, 100% infiltration (white). FIG. 2D is a graph showing Islet insulin granulation scores: 0, less than 25% granulation; 1, 25-50% granulation; 2, 50-75% granulation; […], 75-100% granulated. Data is represented as the mean±SEM; ****p<0.0001 by two-tailed unpaired t test.

[7] = system: T cells from KGYY15 treated mice; assay: T cell proliferation (CFSE dilution) with autologous APC loaded with KGYY15; assay type: cell-based, mouse; details: APC +/- KGYY15, 5 days, n=5
Protocol: as §1

[8] = system: NOD mice; assay: Diabetes prevention in NOD mice treated with peptides; assay type: in vivo, mouse; details: for diabetes onset (blood glucose >250 mg/dl): NOD mice treated with different sizes of peptides, n=10
Protocol: (a) The amino acid sequence of mouse CD154 is depicted, with amino acids known to interact with CD40 shown in bold. A 15 amino acid sequence is highlighted in grey and aligned with the same motif in human CD154. A previously studied peptide is highlighted. (b) NOD mice were treated with different sizes of peptides, as indicated (n=10 in all groups). Mice were monitored for diabetes onset (blood glucose >250 mg/dl). Differences were significant by two-way ANOVA; p<0.0001.
FIG. 3 includes sub-parts FIGS. 3A and 3B. […] The percent of subjects that developed diabetes in the KGYY15 subjects was much lower, as compared with the RGD peptide and the scrambled peptide. KGYY15 diabetes prevention is sequence dependent, and several amino acid positions are critical for its function. (a) KGYY15-treated mice were compared with mice treated with a scrambled peptide or a peptide targeting the RGD region (sequences indicated above the graph). (b) KGYY15-treated mice were compared with mice treated with a 15-mer peptide series in which single amino acids, as indicated, were substituted for glycine. L137; Y144; T146; M147; N150; n=10 in all groups shown in (a) and (b), except for L137, where n=9. Differences were significant by two-way ANOVA; p<0.0001

“VLRWA PKGYY TISSN (chain 1 VLRWAPKGYYTISSN; chain 2 VLRWAPKGYYTISSN) [Dog 15-mer peptide]” was tested, and the fructosamine levels [1] was “significantly decreases fructosamine levels”.
With AKKGYY [KGYY6] the “severity of EAE (disease course, clinical score)” value ([2]; i.v. pretreatment before EAE induction plus boosts, vs PBS control) was “significantly less severe; also recorded: ameliorates EAE; also recorded: significantly reduced the severity of the EAE symptoms”, the “severity of EAE” value ([2]; no pretreatment, treatment delayed until visible disease symptoms) was “may significantly reduce the severity of EAE” and the glucose tolerance [3] was “statistically significant improvement”. For the same substance, the insulin sensitivity [3] was “statistically significant improvement; also recorded: may improve”.
“15-mer: fluorescenated version of the 15-mer peptide used to stain PBMCs from MS patients (VLRWAPKGYYTISSN; also: fluorescent label)” was tested, and the “binding to T cells compared with APCs” value [4] was “bound better to T cells than APCs”.
For “VLQWAKKGYYTMKSN (VLQWAKKGYYTMKSK) [KGYY15]”, the “antibody production to the peptide” value ([5]; serum western blot) was “no antibodies to the peptide had been generated; also recorded: does not elicit antibody production”, the immunogenicity ([5]; NOD mice, 1 mg/kg) was “does not appear to be immunogenic” and the “reversal of overt hyperglycemia” value ([6]; NOD mice treated daily after diabetes onset, n=9) was “reverses overt hyperglycemia”. For the same substance, the “mice with reversed hyperglycemia” value ([6]; new onset diabetic mice) was “approximately 60%”, the “T cell proliferation by CFSE dilution” value [7] was “no proliferation was detected” and the “diabetes onset (blood glucose >250 mg/dl)” value [8] was “prevent the onset of T1D”. The “diabetes onset (blood glucose >250 mg/dl)” value ([8]; listed as 15-mer CD154-derived peptide) was “prevents diabetes” and the “percent of subjects that developed diabetes” value ([8]; NOD mice, 35 weeks, compared with RGD peptide and scrambled peptide) was “much lower”.
For “6-mer: fluorescenated version of the 6-mer peptide used to stain PBMCs from MS patients (AKKGYY; also: fluorescent label)”, the “binding to T cells compared with APCs” value [4] was “stained both T cells and APCs equally well”.
